# Test results: patent US8637511B2, “Aminopyrimidines useful as kinase inhibitors” (Vertex Pharmaceuticals Incorporated, priority 2005, dated 2014)
# pKi: −log10 of the molar value. Read-outs that look alike come from different tables or passages of the source.
# Experiments:
# JAK3 = target: T1, JAK3 (Homo sapiens, UniProt P52333); assay: biochemical
# T1 sequence (P52333 1-1124): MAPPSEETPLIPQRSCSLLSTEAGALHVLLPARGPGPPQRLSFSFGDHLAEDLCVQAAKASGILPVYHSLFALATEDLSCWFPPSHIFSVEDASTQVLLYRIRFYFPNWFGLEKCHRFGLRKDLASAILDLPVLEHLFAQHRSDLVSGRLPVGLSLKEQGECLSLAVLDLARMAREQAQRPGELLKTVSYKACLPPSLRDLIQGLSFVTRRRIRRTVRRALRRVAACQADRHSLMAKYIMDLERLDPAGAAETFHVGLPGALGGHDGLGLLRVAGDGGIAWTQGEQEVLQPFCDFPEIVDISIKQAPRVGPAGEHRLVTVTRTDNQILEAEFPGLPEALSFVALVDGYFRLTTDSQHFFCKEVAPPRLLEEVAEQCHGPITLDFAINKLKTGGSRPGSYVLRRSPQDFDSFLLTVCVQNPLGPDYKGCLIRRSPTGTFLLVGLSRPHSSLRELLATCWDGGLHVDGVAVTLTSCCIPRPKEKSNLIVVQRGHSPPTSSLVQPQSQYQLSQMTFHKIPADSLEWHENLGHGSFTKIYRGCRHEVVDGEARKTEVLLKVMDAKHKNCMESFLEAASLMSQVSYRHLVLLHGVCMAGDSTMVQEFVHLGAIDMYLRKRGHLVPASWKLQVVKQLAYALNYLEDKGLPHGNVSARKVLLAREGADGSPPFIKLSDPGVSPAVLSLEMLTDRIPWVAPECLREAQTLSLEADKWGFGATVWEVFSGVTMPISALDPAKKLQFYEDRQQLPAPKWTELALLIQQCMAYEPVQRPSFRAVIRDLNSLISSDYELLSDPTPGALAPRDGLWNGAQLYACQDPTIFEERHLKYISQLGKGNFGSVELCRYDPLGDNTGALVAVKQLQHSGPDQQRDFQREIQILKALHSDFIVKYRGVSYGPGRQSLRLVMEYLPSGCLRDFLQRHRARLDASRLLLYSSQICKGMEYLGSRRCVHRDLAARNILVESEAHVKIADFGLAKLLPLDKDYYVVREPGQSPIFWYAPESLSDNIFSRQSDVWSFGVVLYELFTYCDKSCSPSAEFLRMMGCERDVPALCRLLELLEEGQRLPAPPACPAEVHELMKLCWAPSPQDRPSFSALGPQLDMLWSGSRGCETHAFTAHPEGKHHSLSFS
# Method: Reactions were carried out in a kinase buffer containing 100 mM HEPES (pH 7.4), 1 mM DTT, 10 mM MgCl2, 25 mM NaCl, and 0.01% BSA. Substrate concentrations in the assay were 5 μM ATP (200 uCi/μmole ATP) and 1 μM poly(Glu)4Tyr. Reactions were carried out at 25° C. and 1 nM JAK3.
# To each well of a 96 well polycarbonate plate was added 1.5 μl of a candidate JAK3 inhibitor along with 50 μl of kinase buffer containing 2 μM poly(Glu)4Tyr and 10 μM ATP. This was then mixed and 50 μl of kinase buffer containing 2 nM JAK3 enzyme was added to start the reaction. After 20 minutes at room temperature (25 C), the reaction was stopped with 50 μl of 20% trichloroacetic acid (TCA) that also contained 0.4 mM ATP. The entire contents of each well were then transferred to a 96 well glass fiber filter plate using a TomTek Cell Harvester. After washing, 60 μl of scintillation fluid was added and ^33P incorporation detected on a Perkin Elmer TopCount.
# FLT-3 = target: T2, FLT-3 (Homo sapiens, UniProt P36888); assay: FLT-3 inhibition assay, radiometric filter-binding; format: biochemical
# T2 sequence (P36888 27-993): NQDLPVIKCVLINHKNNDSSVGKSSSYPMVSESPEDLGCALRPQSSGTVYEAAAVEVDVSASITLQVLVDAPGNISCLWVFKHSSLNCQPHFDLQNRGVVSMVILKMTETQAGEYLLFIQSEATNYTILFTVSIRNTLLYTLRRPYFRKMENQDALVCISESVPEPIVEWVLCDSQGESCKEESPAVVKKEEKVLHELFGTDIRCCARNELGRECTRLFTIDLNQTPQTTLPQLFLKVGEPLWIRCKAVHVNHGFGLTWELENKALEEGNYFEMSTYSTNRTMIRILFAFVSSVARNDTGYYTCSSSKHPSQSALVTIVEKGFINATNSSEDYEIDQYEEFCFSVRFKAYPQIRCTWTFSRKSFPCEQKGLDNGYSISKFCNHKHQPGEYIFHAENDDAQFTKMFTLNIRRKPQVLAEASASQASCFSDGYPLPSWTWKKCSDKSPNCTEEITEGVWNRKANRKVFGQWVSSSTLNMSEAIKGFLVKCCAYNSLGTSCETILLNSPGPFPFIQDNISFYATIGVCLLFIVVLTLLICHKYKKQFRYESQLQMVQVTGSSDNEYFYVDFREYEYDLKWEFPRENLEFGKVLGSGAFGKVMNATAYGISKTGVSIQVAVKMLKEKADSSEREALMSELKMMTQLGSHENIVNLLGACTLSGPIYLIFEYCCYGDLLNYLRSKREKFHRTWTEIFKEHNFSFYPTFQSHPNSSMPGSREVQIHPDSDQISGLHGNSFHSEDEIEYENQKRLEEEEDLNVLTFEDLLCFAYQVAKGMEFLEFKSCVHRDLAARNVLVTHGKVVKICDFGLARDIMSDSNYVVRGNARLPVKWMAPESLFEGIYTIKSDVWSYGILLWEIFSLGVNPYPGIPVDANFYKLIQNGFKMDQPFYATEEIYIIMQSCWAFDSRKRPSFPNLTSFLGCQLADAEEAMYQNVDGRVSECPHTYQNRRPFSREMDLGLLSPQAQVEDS
SMILES,pKi (JAK3; read-out: JAK3 Ki value),pKi (FLT-3),pKi (JAK3),pKi (FLT-3; read-out: FLT-3 Ki value)
CCOC1CN(c2cc(Nc3cc(C)[nH]n3)nc(Sc3ccc(NC(=O)c4ccccc4Cl)cc3)n2)C1 [Compound 37],≥ 8.00,6.82 to 7.30,,
Cc1cc(Nc2cc(N3CC(OC(C)C)C3)nc(Sc3ccc(NC(=O)c4ccccc4Cl)cc3)n2)n[nH]1 [Compound 38],,6.00 to 6.82,6.30 to 8.00,
Cc1cc(Nc2cc(N3CC(C)(O)C3)nc(Sc3ccc(NC(=O)c4ccccc4Cl)cc3)n2)[nH]n1 [Compound 50],≥ 8.00,≥ 7.30,,
COC1(C)CN(c2cc(Nc3cc(C)n[nH]3)nc(Sc3ccc(NC(=O)c4ccccc4Cl)cc3)n2)C1 [Compound 51],,6.82 to 7.30,6.30 to 8.00,
Cc1cc(Nc2cc(N3CCC3)nc(Sc3ccc(NC(=O)Cc4ccccc4Cl)cc3)n2)[nH]n1 [Compound 57],,,6.30 to 8.00,6.00 to 6.82
Cc1cc(Nc2cc(N3CCC3)nc(Sc3ccc(NC(=O)c4cnccc4C(F)(F)F)cc3)n2)[nH]n1 [Compound 59],,6.00 to 6.82,,
CCC(=O)Nc1ccc(Sc2nc(Nc3cc(C)n[nH]3)cc(N3CC(OC(C)(C)C)C3)n2)cc1 [Compound 67],6.30 to 8.00,,,6.82 to 7.30
CCC(=O)Nc1ccc(Sc2nc(Nc3cc(C)n[nH]3)cc(N3CC(N4CCOCC4)C3)n2)cc1 [Compound 68],,,6.30 to 8.00,6.82 to 7.30
CC(C)(C)c1cc(Nc2cc(N3CCC3)nc(Sc3ccc(NC(=O)c4ccccc4Cl)cc3)n2)n[nH]1 [Compound 69],5.70 to 6.30,6.00 to 6.82,,
COCc1cc(Nc2cc(N3CCC3)nc(Sc3ccc(NC(=O)c4ccccc4Cl)cc3)n2)n[nH]1 [Compound 82],5.70 to 6.30,6.00 to 6.82,,
Cc1cc(Nc2cc(N3CCC3)nc(Sc3ccc(NC(=O)c4ccc(-c5ccccc5)cc4Cl)cc3)n2)[nH]n1 [Compound 83],,,6.30 to 8.00,6.00 to 6.82
CCC(=O)Nc1ccc(Sc2nc(Nc3cc(C)n[nH]3)cc(N3CC(C)(N4CCOCC4)C3)n2)cc1 [Compound 88],≥ 8.00,≥ 7.30,,
CCC(=O)Nc1ccc(Sc2nc(Nc3cc(C)n[nH]3)cc(N3CC(C)(N4CCCC4)C3)n2)cc1 [Compound 89],,,6.30 to 8.00,≥ 7.30
CCC(=O)Nc1ccc(Sc2nc(Nc3cc(C)n[nH]3)cc(N3CC(OC)(C(C)(C)C)C3)n2)cc1 [Compound 90],,≥ 7.30,6.30 to 8.00,
CCC(=O)Nc1ccc(Sc2nc(Nc3cc(C)n[nH]3)cc(N3CC4(C3)OCC4(C)C)n2)cc1 [Compound 92],,,≥ 8.00,≥ 7.30
Cc1cc(Nc2cc(N3CC(O)(C4CC4)C3)nc(Sc3ccc(NC(=O)C4CC4)c(F)c3)n2)[nH]n1 [Compound 109],6.30 to 8.00,,,≥ 7.30
Cc1cc(Nc2cc(N3CC(OC(=O)CN(C)C)(C4CC4)C3)nc(Sc3ccc(NC(=O)C4CC4)cc3)n2)n[nH]1 [Compound 119],,,6.30 to 8.00,≥ 7.30
Cc1cc(Nc2cc(N3CC(F)(C4CC4)C3)nc(Oc3ccc(NC(=O)CC(F)(F)F)cc3)n2)[nH]n1 [Compound 144],,≥ 7.30,6.30 to 8.00,

SMILES,pKi (JAK3; read-out: JAK3 Ki value),pKi (FLT-3),pKi (JAK3),pKi (FLT-3; read-out: FLT-3 Ki value)
Cc1cc(Nc2cc(N3CC(F)(C4CC4)C3)nc(Sc3ccc(NS(C)(=O)=O)cc3)n2)[nH]n1 [Compound 151],,≥ 7.30,≥ 8.00,
Cc1cc(Nc2cc(N3CC(F)(C4CC4)C3)nc(Sc3ccc(NC(=O)CN(C)C)cc3)n2)[nH]n1 [Compound 152],,6.00 to 6.82,5.70 to 6.30,
Cc1cc(Nc2cc(N3CC(O)(C4CC4)C3)nc(Sc3ccc4nc(C(F)(F)F)n(C)c4c3)n2)[nH]n1 [Compound 155],,6.82 to 7.30,6.30 to 8.00,
"Cc1cc(Nc2cc(N3CC(C)(F)C3)nc(Sc3ccc(NC(=O)CC(F)(F)F)cc3)n2)n[nH]1 [Compound 168, N-(4-(4-(5-methyl-1H-pyrazol-3-ylamino)-6-(3-fluoro-3-methylazetidin-1-yl)pyrimidin-2-ylthio)phenyl)-3,3,3-trifluoropropanamide]",6.30 to 8.00,≥ 7.30,,
Cc1cc(Nc2cc(N3CC(C)(C#N)C3)nc(Sc3ccc(NC(=O)CC(F)(F)F)cc3)n2)[nH]n1 [Compound 169],6.30 to 8.00,≥ 7.30,,
Cc1cc(Nc2cc(N3CC(O)(C4CC4)C3)nc(Sc3cc(F)c4nc(C)ccc4c3)n2)[nH]n1 [Compound 172],,6.82 to 7.30,≥ 8.00,
Cc1cc(Nc2cc(N3CC(N4CCOCC4)C3)nc(Sc3ccc4c(c3)CN(CC(F)(F)F)C4=O)n2)[nH]n1 [Compound 173],,≥ 7.30,≥ 8.00,
Cc1cc(Nc2cc(N3CC(N4CCOCC4)C3)nc(Sc3ccc4nc(CC(F)(F)F)n(C)c4c3)n2)[nH]n1 [Compound 177],,6.00 to 6.82,6.30 to 8.00,
Cc1cc(Nc2nc(Sc3ccc(NC(=O)CC(F)(F)F)cc3)nc(N3CC(F)(C4CC4)C3)c2F)[nH]n1 [Compound 178],,6.00 to 6.82,5.70 to 6.30,
Cc1cnc(Nc2cc(N3CC(F)(C4CC4)C3)nc(Oc3ccc(NC(=O)CC(F)(F)F)cc3)n2)s1 [Compound 181],≥ 8.00,≥ 7.30,,
Cc1cc(Nc2cc(N3CC(C)(C(C)(C)F)C3)nc(Sc3ccc(NC(=O)CC(F)(F)F)cc3)n2)[nH]n1 [Compound 183],≥ 8.00,≥ 7.30,,
CC(C)=C1CN(c2cc(Nc3cc(C)n[nH]3)nc(Sc3ccc(NC(=O)CC(F)(F)F)cc3)n2)C1 [Compound 184],,6.82 to 7.30,6.30 to 8.00,
Cc1cc(Nc2cc(N3CC(N4CC[C@H](F)C4)C3)nc(Sc3ccc(NC(=O)CC(F)(F)F)cc3)n2)[nH]n1 [Compound 185],≥ 8.00,6.82 to 7.30,,
Cc1cc(Nc2cc(N3CC(O)(C4CC4)C3)nc(Sc3ccc4nc(C(F)(F)F)ccc4c3)n2)[nH]n1 [Compound 186],6.30 to 8.00,6.82 to 7.30,,
Cc1cc(Nc2cc(N3CC(F)(C4CC4)C3)nc(Sc3ccc(NC(=O)C4(C)CC4)cc3)n2)[nH]n1 [Compound 203],,,5.70 to 6.30,6.00 to 6.82
Cc1cc(Nc2cc(N3CC(N4CCCC4)C3)nc(Sc3ccc(NC(=O)CC(F)(F)F)cc3)n2)[nH]n1 [Compound 204],6.30 to 8.00,6.82 to 7.30,,
Cc1cc(Nc2cc(N3CC(F)(C4CC4)C3)nc(Sc3ccc(C(=O)NCC(F)(F)F)cc3)n2)[nH]n1 [Compound 205],6.30 to 8.00,6.82 to 7.30,,
Cc1cc(Nc2cc(N3CC(F)(C4CC4)C3)nc(Sc3cnc4ccccc4c3)n2)[nH]n1 [Compound 206],,≥ 7.30,≥ 8.00,
